Common to all, as to format: cell-based
Series [1] deals with HIV-1 EFVR (K103R + V179D + P225H). The series is described as follows: Inhibition of virus-induced cytopathogenicity in MT-4 cells, NNRTI-resistant mutant EFVR. The following applies: for EC50: Human immunodeficiency virus 1, MT4, read-out: EC50 EFVR; for Selectivity Index (SI = CC50/EC50) EFVR: in round brackets. The method, then:
(§1) HIV-1IIIB and HIV-2 CBL-20 strains were obtained from the supernatants of persistently infected H9/IIIB and CEM cells, respectively. HIV-1 and HIV-2 stock solutions had titres of 4.5 × 10^7 and 1.4 × 10^6 50% cell culture infectious doses (CCID50)/ml, respectively. […] The K103R + V179D + P225H mutant (EFVR) was derived from an IIIB strain passaged in MT-4 cells in the presence of Efavirenz (up to 2 μM). N119, A17 and EFV^R stock solutions had titres of 1.2 × 10^8, 2.1 × 10^7, and 4.0 × 10^7 CCID50/ml, respectively.
(§2) The activity of the test compounds against the replication of HIV-1 wt and mutant strains (N119, A17, EFV^R, AZT^R, MDR, SAQ^R) and HIV-2 wt in acutely infected cells was based on the inhibition of virus-induced cytopathogenicity in MT-4 and C8166 cells, respectively. Briefly, 50 μL of culture medium containing 1 × 10^4 cells was added to each well of flat-bottom microtitre trays containing 50 μL of culture medium with or without different serial concentrations of test compounds. Then, 20 μL of an HIV suspension (containing the appropriate amount of CCID50 required to cause complete cytopathogenicity on day 4, final multiplicity of infection [m.o.i.] 0.01) was added.

For series [2], the system named is HIV-1 AZTR (67N, 70R, 215F, 219Q). Kind of series: Inhibition of virus-induced cytopathogenicity in MT-4 cells, NRTI-resistant mutant AZTR. The following applies: for EC50: Human immunodeficiency virus 1, MT4, read-out: EC50 AZTR; for Selectivity Index (SI = CC50/EC50) AZTR: in round brackets. Here is the method: as §1, §2
A general note: Damage to the host cells serves as the signal in cytopathic effect assays.

Series [3] deals with HIV-1 A17 (K103N + Y181C). The series is described as follows: Inhibition of virus-induced cytopathogenicity in MT-4 cells, NNRTI-resistant mutant A17. The following applies: for EC50: Human immunodeficiency virus 1, MT4, read-out: EC50 A17; for Selectivity Index (SI = CC50/EC50) A17: in round brackets. The method, then: as §1, §2
A short description of series [4]: Cytotoxicity in mock-infected MT-4 cells (MTT method). The following applies: human. The method, then:
as §2, with “added. After incubation at 37 °C, cell viability was determined using the […] (MTT) method ([Pauwels et al., 1988]). The cytotoxicity of the test compounds was evaluated in parallel with their antiviral activity through the viability of mock-infected, treated cells, as monitored by the MTT method and described elsewhere ([Morellet et al., 1994]).” for “added.”

In series [5] the test system is HIV-1 SAQR (L10F, G48V, L90M). Kind of series: Inhibition of virus-induced cytopathogenicity in MT-4 cells, PRI-resistant mutant SAQR. The following applies: for EC50: Human immunodeficiency virus 1, MT4, read-out: EC50 SAQR; for Selectivity Index (SI = CC50/EC50) SAQR: in round brackets. Here is the method: as §1, §2
In series [6] the test system is HIV-1 MDR (74V, 41L, 106A, 215Y). Kind of series: Inhibition of virus-induced cytopathogenicity in MT-4 cells, NRTI-resistant mutant MDR. The following applies: for EC50: Human immunodeficiency virus 1, MT4, read-out: EC50 MDR; for Selectivity Index (SI = CC50/EC50) MDR: in round brackets. Here is the method: as §1, §2
A further series deals with HIV-1 N119 (Y181C). Kind of series: Inhibition of virus-induced cytopathogenicity in MT-4 cells, NNRTI-resistant mutant N119. The following applies: for EC50: Human immunodeficiency virus 1, MT4, read-out: EC50 N119; for Selectivity Index (SI = CC50/EC50) N119: in round brackets. The method, then:
as §1, §2

A further series relates to HIV-1 IIIB strain. The series is described as follows: microbe, parasite or virus in culture. The following applies: for EC50: Human immunodeficiency virus 1, IIIB, MT4, read-out: EC50 HIV-1; for Selectivity Index (SI = CC50/EC50) HIV-1: IIIB strain, in round brackets. The method, then:
as §1, §2

By EC50 is commonly meant the concentration needed to bring the measured effect to its halfway point. In general, CC50 refers to the concentration at which the toxic effect on the cells reaches its halfway point. Low readings indicate harm at low concentration, high ones better tolerance by the cells. For `O=c1c2ccccc2sn1NS(=O)(=O)c1ccc([N+](=O)[O-])cc1` [Compound 8, 4-Nitro-N-(3-oxo-1,2-benzisothiazol-2(3H)-yl)benzenesulfonamide], the EC50 in series [1] stood at 9 ± 2 µM; in series [2] it was 7 ± 0.7 µM; in series [3], 11 ± 2 µM; in series [5] it was 8 ± 1 µM; in series [6], 6 ± 0.5 µM; in the series on HIV-1 N119 (Y181C) it was 7 ± 0.5 µM. In the series with HIV-1 IIIB strain, the EC50 was determined as 15 ± 4 µM. Also, the “Selectivity Index (SI = CC50/EC50) EFVR” value in series [1] was more than 11. Further, in series [3], the “Selectivity Index (SI = CC50/EC50) A17” value was more than 9. In addition, in series [4], the CC50 at 4 days is more than 100 µM. In addition, the “Selectivity Index (SI = CC50/EC50) N119” value in the series with HIV-1 N119 (Y181C) is more than 14. In addition, the “Selectivity Index (SI = CC50/EC50) HIV-1” value with HIV-1 IIIB strain is listed as more than 7.
Turning to `O=c1c2ccccc2sn1NS(=O)(=O)c1cccc(Cl)c1` [Compound 14, 3-Chloro-N-(3-oxo-1,2-benzisothiazol-2(3H)-yl)benzenesulfonamide], the concentration giving a half-maximal response (EC50) was found to be 7 ± 1 µM in series [1]; 6 ± 0.7 µM in series [2]; 3 ± 1 µM in series [3]; 4 ± 0.7 µM in series [5]; 6 ± 1 µM in series [6]; 7 ± 1.4 µM with HIV-1 N119 (Y181C). For the same molecule, the 50% effective concentration (EC50) in the series with HIV-1 IIIB strain is 5 ± 1 µM. Moreover, the “Selectivity Index (SI = CC50/EC50) AZTR” value in series [2] is on record as 6. In series [4], this molecule returned a 50% cytotoxic concentration (CC50) at 4 days of 40 ± 2 µM. Also, in series [5], the “Selectivity Index (SI = CC50/EC50) SAQR” value was 10. Also, in series [6], the “Selectivity Index (SI = CC50/EC50) MDR” value came to 6. For the same molecule, the “Selectivity Index (SI = CC50/EC50) N119” value in the series on HIV-1 N119 (Y181C) is recorded as 5. The “Selectivity Index (SI = CC50/EC50) HIV-1” value with HIV-1 IIIB strain is recorded as 8.
With `O=c1c2cc(Cl)ccc2sn1NS(=O)(=O)c1ccccc1Cl` [Compound 18, 2-Chloro-N-(5-chloro-3-oxo-1,2-benzisothiazol-2(3H)-yl)benzenesulfonamide], in series [1], the EC50 came out at 7 ± 2 µM and the “Selectivity Index (SI = CC50/EC50) EFVR” value is more than 14. For the same molecule, in series [2], the 50% effective concentration (EC50) stood at 12 ± 2 µM and the “Selectivity Index (SI = CC50/EC50) AZTR” value is more than 8. For the same molecule, in series [3], the EC50 was found to be 20 ± 4 µM and the “Selectivity Index (SI = CC50/EC50) A17” value is reported as more than 5. The same molecule registered a CC50 at 4 days in series [4] of more than 100 µM. In addition, in series [5], the EC50 is 15 ± 3 µM and the “Selectivity Index (SI = CC50/EC50) SAQR” value is more than 6. For the same molecule, in series [6], the EC50 worked out at 16 ± 2 µM and the “Selectivity Index (SI = CC50/EC50) MDR” value is reported as more than 6. In addition, in the series on HIV-1 N119 (Y181C), the EC50 worked out at 14 ± 1 µM and the “Selectivity Index (SI = CC50/EC50) N119” value is more than 5. Also, in the series on HIV-1 IIIB strain, the EC50 came to 16 ± 3 µM and the “Selectivity Index (SI = CC50/EC50) HIV-1” value is reported as more than 6.
Regarding `CC(C)(C)NC(=O)[C@@H]1C[C@@H]2CCCC[C@@H]2CN1C[C@@H](O)[C@H](Cc1ccccc1)NC(=O)[C@H](CC(N)=O)NC(=O)c1ccc2ccccc2n1` [SAQ, saquinavir, reference compound], the EC50 in series [1] worked out at 0.01 ± 0.005 µM; in series [2] it was 0.01 ± 0.005 µM; in series [3], 0.01 ± 0.002 µM; in series [5], 0.5 ± 0.1 µM; in series [6], 0.02 ± 0.007 µM; in the series with HIV-1 N119 (Y181C) it was 0.02 ± 0.001 µM. For the same molecule, the EC50 in the series with HIV-1 IIIB strain is 0.01 ± 0.001 µM. This molecule showed a cytotoxic concentration (CC50) in series [4] (MT-4, MTT method) not below 20 µM.
Regarding `O=c1c2ccccc2sn1NS(=O)(=O)c1ccccc1F` [Compound 10, 2-Fluoro-N-(3-oxo-1,2-benzisothiazol-2(3H)-yl)benzenesulfonamide], in series [1], the concentration giving a half-maximal response (EC50) was 5 ± 2 µM and the “Selectivity Index (SI = CC50/EC50) EFVR” value is reported as more than 20. Further, in series [2], the EC50 amounted to 6 ± 0.5 µM and the “Selectivity Index (SI = CC50/EC50) AZTR” value is more than 16. For the same molecule, in series [3], the concentration giving a half-maximal response (EC50) is 7 ± 0.7 µM and the “Selectivity Index (SI = CC50/EC50) A17” value is more than 14. The same molecule yielded a CC50 at 4 days in series [4] of more than 100 µM. Also, in series [5], the 50% effective concentration (EC50) is 7 ± 1 µM and the “Selectivity Index (SI = CC50/EC50) SAQR” value is recorded as more than 14. Also, in series [6], the EC50 is 5 ± 0.5 µM and the “Selectivity Index (SI = CC50/EC50) MDR” value was more than 20. In addition, in the series with HIV-1 N119 (Y181C), the half-maximal effective concentration (EC50) was determined as 6 ± 3 µM and the “Selectivity Index (SI = CC50/EC50) N119” value is recorded as more than 16. For the same molecule, in the series on HIV-1 IIIB strain, the EC50 was determined as 7 ± 0.8 µM and the “Selectivity Index (SI = CC50/EC50) HIV-1” value is recorded as more than 14.

Source of the values: paper PMC12627007, “HIV nucleocapsid proteins as targets for novel 1,2-benzisothiazol-3(2H)-one benzenesulfonamides: synthesis and antiretroviral activity” (Frontiers in Microbiology, 2025).
